The results in this text go back to ChEMBL document CHEMBL3763146 (J Med Chem, 2016).

SMILES strings stand for the structures.

The nature of series [1]: Stability in dog plasma assessed as parent compound remaining at 24 hrs by LC-MS analysis. Format: ADME, cell-free, Canis lupus familiaris. As to conditions: read-out: Stability.
The nature of series [2]: Stability in human plasma assessed as parent compound remaining at 24 hrs by LC-MS analysis. As to conditions: read-out: Stability. Format: ADME, cell-free.
Series [3] addresses T1, Beta-3 adrenergic receptor (Homo sapiens, UniProt P13945). Kind of series: Agonist activity at human beta3 adrenergic receptor expressed in CHO cells assessed as accumulation of cAMP after 30 mins by TR-FRET assay relative to (R)-(-)-isoproterenol. Format: functional, cell-based. (Time-resolved FRET reads energy transfer from a long-lived donor to a nearby acceptor.)
Target sequence in this assay (P13945 whole entry, looked up): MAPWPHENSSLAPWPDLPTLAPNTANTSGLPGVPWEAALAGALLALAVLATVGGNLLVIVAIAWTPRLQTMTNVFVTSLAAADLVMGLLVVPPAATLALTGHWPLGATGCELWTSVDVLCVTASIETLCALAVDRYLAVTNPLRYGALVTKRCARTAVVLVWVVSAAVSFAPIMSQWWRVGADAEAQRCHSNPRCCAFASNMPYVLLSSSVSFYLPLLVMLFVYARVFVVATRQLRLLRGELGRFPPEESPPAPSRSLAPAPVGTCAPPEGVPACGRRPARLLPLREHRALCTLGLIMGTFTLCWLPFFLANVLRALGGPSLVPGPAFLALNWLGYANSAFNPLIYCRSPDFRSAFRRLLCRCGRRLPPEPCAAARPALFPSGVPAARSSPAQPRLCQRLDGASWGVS
A short description of series [4]: Stability in rat plasma assessed as parent compound remaining at 24 hrs by LC-MS analysis. Format: ADME, cell-free. Conditions: read-out: Stability.
Series [5] is described as follows: Stability in rhesus monkey plasma assessed as parent compound remaining at 24 hrs by LC-MS analysis. Format: ADME, cell-free, Macaca mulatta. As to conditions: read-out: Stability.
The nature of series [6]: Distribution coefficient, logD of the compound at pH 7.4. Format: physicochemical. As to conditions: octanol/water.
Series [7] is described as follows: Induction of phospholidosis in human HepG2 cells incubated overnight by […] in presence of fluorescent labeled phospholipid probe NBD-PE. Format: cell-based. Conditions: read-out: A50.
The subject of series [8] is Rattus norvegicus. Kind of series: Increase in circulating free fatty acid level in iv infused Sprague-Dawley rat after 45 mins by liquid chromatography-tandem mass spectrometric analysis. Format: functional.
Series [9] deals with Rattus norvegicus. Description: Increase in circulating glycerol level in iv infused Sprague-Dawley rat after 45 mins by liquid chromatography-tandem mass spectrometric analysis. Format: functional.
Series [10] has as its target Beta-1 adrenergic receptor (Homo sapiens, UniProt P08588).
Description: Displacement of [125]I-cyanopindolol from recombinant human beta1 adrenergic receptor after 1 hr by scintillation counting method
Another series has as its target Cytochrome P450 2C9 (Homo sapiens, UniProt P11712). Description: Inhibition of CYP2C9 in human liver microsomes assessed as diclofenac alpha'-hydroxylation. Format: ADME. (In general: Liver microsomes are a subcellular fraction often used to study metabolism.)
For series [11], the target named is T1, Beta-3 adrenergic receptor. Description: Agonist activity at human beta3 adrenergic receptor expressed in CHO cells assessed as accumulation of cAMP after 30 mins by TR-FRET assay. Format: functional, cell-based.
Target sequence in this assay (P13945 whole entry): as the sequence (P13945 whole entry, looked up) above
Another series addresses Cytochrome P450 3A4 (Homo sapiens, UniProt P08684). Kind of series: Inhibition of CYP3A4 in human liver microsomes assessed as testosterone 6beta-hydroxylation. Format: ADME.
The target in series [12] is Sodium-dependent serotonin transporter (Homo sapiens, UniProt P31645). Description: Inhibition of human SERT expressed in HEK293 cells preincubated for 30 mins followed by fluorescent substrate addition measured after 30 mins by plate reader analysis. Format: cell-based.
In another series the target is Cytochrome P450 2D6 (Homo sapiens, UniProt P10635). Description: Inhibition of CYP2D6 in human liver microsomes assessed as dextraomethorphan O-demethylation. Format: ADME.
Series [13] addresses Beta-2 adrenergic receptor (Homo sapiens, UniProt P07550).
Description: Displacement of [125]I-cyanopindolol from human recombinant beta2 adrenergic receptor after 1 hr by scintillation counting method
Series [14] has as its target Voltage-dependent L-type calcium channel subunit alpha-1C (Homo sapiens, UniProt Q13936). Kind of series: Displacement of [3H]-diltiazem from human Cav1.2 channel. Background: In a radioligand displacement assay an active substance lowers the binding of a labelled ligand.
Series [15] has as its target Sodium channel protein type 2 subunit alpha (Homo sapiens, UniProt Q99250). Kind of series: Inhibition of human Nav1.2 channel expressed in Xenopus oocytes by two-intracellular microelectrode voltage clamp method. Format: cell-based.
For series [16], the target named is Voltage-gated inwardly rectifying potassium channel KCNH2 (Homo sapiens, UniProt Q12809). Description: Binding affinity to human ERG channel.
Sequence of Voltage-gated inwardly rectifying potassium channel KCNH2 (Q12809 whole entry): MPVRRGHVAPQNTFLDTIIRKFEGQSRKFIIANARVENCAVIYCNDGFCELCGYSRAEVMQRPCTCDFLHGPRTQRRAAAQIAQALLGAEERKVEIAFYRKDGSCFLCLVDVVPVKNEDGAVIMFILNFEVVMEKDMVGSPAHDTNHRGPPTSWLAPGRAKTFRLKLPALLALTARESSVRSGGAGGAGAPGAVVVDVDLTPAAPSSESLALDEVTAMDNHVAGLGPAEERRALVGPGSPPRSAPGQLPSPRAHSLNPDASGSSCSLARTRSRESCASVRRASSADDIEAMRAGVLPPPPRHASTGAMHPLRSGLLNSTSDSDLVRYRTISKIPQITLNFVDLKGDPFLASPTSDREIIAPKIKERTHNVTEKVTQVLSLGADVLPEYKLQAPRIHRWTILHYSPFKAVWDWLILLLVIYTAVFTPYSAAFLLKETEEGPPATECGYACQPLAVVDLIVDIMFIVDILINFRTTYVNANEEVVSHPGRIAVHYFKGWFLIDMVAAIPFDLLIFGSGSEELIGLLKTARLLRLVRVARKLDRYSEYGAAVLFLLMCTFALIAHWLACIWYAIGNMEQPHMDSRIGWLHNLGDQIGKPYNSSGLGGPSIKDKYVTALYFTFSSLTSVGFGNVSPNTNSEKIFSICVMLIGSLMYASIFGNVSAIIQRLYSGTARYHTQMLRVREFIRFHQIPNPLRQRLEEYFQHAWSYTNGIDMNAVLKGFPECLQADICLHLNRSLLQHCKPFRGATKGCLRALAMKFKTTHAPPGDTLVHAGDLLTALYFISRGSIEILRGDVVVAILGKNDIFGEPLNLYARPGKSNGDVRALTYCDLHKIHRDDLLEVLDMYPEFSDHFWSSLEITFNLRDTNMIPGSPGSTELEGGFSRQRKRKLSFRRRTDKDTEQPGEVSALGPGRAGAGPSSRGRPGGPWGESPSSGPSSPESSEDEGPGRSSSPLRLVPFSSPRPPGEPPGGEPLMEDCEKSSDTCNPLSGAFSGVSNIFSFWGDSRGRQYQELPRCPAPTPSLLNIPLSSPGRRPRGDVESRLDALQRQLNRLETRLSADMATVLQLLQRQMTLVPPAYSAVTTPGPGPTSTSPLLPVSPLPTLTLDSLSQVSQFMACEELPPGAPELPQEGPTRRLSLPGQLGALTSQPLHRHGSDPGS
Series [17] concerns Rattus norvegicus. Description: Dose normalized total AUC in rat at 2 mg/kg, po. Format: ADME, organism-based. Conditions: in vivo.
Series [18] can be described thus: Plasma clearance in rat at 1 mg/kg, iv or 2 mg/kg, po. Format: ADME, organism-based.
A short description of series [19]: Oral bioavailability in rat at 2 mg/kg. Format: ADME, organism-based. Conditions: in vivo.
Series [20] can be described thus: Half life in rat at 1 mg/kg, iv or 2 mg/kg, po. Format: ADME, organism-based. Conditions: in vivo.

Sequence of Sodium channel protein type 2 subunit alpha (Q99250 whole entry, looked up): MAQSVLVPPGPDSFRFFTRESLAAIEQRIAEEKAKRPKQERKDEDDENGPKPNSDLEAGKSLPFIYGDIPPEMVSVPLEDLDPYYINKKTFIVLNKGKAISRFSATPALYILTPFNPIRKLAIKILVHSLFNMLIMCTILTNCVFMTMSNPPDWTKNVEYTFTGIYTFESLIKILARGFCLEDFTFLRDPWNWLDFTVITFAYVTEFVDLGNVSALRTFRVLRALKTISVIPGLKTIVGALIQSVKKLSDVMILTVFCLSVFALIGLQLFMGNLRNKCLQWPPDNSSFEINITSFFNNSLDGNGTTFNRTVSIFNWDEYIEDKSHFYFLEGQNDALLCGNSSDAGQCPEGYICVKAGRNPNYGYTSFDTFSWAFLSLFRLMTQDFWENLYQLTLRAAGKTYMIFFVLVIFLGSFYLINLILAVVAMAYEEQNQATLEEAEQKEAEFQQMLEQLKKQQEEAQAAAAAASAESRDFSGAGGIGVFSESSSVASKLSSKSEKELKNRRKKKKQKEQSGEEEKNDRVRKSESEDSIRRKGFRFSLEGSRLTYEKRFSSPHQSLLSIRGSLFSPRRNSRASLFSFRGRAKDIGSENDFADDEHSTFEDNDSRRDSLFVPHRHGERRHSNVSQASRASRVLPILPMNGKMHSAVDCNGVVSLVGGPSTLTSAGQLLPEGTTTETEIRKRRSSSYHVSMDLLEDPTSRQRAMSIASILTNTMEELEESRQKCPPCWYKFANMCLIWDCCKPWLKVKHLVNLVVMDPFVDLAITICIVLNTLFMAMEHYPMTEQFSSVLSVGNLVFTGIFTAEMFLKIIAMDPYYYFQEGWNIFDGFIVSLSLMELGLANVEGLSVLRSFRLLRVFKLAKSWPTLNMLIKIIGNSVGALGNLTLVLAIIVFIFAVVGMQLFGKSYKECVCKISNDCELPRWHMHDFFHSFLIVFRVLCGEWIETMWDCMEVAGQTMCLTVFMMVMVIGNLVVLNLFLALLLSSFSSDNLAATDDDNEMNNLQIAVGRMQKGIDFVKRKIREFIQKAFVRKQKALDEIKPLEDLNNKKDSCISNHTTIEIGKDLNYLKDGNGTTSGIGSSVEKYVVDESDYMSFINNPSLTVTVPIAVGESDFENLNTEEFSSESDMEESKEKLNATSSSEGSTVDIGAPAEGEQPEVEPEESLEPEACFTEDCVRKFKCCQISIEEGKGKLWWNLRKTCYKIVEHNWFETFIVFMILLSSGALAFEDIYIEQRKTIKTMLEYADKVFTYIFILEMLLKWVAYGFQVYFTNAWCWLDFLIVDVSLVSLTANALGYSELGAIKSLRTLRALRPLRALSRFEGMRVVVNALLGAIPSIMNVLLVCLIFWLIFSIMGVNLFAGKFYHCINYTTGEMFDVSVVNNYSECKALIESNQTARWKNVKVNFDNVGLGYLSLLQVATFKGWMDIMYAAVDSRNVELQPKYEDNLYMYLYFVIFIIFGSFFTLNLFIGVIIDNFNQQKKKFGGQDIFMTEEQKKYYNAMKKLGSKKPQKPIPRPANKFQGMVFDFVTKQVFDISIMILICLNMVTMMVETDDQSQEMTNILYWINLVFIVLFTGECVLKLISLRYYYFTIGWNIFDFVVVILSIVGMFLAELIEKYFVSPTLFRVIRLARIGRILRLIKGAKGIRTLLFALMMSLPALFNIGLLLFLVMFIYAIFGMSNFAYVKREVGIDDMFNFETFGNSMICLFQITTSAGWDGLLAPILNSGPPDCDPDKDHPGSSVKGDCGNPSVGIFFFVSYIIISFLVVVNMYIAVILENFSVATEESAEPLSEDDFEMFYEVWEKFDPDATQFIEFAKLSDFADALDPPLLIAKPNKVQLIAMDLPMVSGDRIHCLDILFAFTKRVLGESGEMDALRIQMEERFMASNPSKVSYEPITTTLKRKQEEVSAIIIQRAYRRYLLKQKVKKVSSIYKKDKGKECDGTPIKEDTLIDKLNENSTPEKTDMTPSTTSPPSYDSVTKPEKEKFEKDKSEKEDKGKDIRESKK
Sequence of Beta-1 adrenergic receptor (P08588 whole entry): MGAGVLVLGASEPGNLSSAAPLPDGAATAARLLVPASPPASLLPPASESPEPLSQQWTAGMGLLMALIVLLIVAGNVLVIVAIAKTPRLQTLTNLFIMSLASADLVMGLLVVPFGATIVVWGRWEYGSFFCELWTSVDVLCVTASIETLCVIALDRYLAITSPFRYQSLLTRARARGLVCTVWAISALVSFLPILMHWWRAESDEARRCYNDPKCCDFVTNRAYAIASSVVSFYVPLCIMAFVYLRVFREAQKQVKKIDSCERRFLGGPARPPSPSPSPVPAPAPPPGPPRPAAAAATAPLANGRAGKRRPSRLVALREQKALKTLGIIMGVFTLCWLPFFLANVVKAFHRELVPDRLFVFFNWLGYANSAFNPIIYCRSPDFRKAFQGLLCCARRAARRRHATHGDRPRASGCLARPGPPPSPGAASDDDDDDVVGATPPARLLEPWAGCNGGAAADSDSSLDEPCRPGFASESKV
Sequence of Beta-2 adrenergic receptor (P07550 whole entry): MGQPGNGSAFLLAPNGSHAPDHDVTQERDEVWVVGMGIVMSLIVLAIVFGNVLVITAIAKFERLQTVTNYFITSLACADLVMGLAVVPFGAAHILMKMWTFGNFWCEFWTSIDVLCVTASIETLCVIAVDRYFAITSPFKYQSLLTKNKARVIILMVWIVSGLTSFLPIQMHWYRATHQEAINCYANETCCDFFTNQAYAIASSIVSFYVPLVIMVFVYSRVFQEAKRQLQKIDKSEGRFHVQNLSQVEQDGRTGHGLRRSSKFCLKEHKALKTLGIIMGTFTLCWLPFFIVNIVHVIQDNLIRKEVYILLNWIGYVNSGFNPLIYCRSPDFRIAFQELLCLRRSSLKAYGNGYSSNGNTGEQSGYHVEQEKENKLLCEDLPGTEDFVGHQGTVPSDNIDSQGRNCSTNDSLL
Sequence of Cytochrome P450 2C9 (P11712 whole entry): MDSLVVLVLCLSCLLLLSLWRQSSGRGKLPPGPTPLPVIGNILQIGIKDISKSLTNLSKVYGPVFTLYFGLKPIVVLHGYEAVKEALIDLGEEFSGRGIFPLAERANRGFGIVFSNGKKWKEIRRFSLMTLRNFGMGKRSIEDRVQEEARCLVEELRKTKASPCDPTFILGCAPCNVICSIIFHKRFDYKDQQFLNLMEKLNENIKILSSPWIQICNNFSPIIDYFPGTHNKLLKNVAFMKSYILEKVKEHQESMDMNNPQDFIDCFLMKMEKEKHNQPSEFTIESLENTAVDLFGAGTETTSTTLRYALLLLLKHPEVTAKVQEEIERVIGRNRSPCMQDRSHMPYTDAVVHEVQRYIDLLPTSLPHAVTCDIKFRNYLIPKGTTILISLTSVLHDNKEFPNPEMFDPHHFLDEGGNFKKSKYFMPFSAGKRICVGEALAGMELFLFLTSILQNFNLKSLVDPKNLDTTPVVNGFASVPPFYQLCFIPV

In general, logD refers to the decadic logarithm of the distribution of all forms, ionised or not, between an organic phase and buffer at a given pH. Consider `O=C(Nc1ccc(C[C@@H]2CC[C@H]([C@H](O)c3cccnc3)N2)cc1)[C@@H]1CCc2ccnn21`, for which the remaining at 24 h was determined as 100% in series [1], 0% in series [2], 97% in series [4] and 87% in series [5]. In addition, in series [3], the max activation came to 84%. The same compound yielded a logD in [6] of 0.9. The AC50 in [7] was 94 µM.

`Nc1nc(CC(=O)Nc2ccc(CCNC[C@H](O)c3ccccc3)cc2)cs1` [MIRABEGRON]: the Activity entry with Rattus norvegicus [8] and with Rattus norvegicus [9] was “Dose-dependent effect” throughout. Besides, the minimal effective dose with Rattus norvegicus [8] (0.75 h, read-out: MED) is 0.3 mg/kg; in the series on Rattus norvegicus [9] (0.75 h, read-out: MED), 0.3 mg/kg.

As a reminder, the IC50 is the concentration at which inhibition is half-maximal. Usually EC50 stands for the concentration at which the effect is half-maximal. As to `O=C(Cn1cnc2ccccc2c1=O)Nc1ccc(C[C@@H]2CC[C@H]([C@H](O)c3ccccc3)N2)cc1`, the IC50 is over 20 µM in series [10]; over 100 µM at Cytochrome P450 2C9; 96 µM at Cytochrome P450 3A4; 0.2 µM in series [12]; 31 µM at Cytochrome P450 2D6; 2.2 µM in series [13]. The IC50 in [14] is 13 µM; in series [15], over 30 µM. For the same compound, in series [3], the max activation turned out to be 108%. Besides, in series [11], the EC50 is 0.0017 µM. The logD in series [6] is 2. For the same compound, in series [7], the AC50 was 8.6 µM.

Turning to `Nc1nc(CC(=O)Nc2ccc(C[C@@H]3CC[C@H]([C@H](O)c4ccccc4)N3)cc2)cs1`, the 50% inhibitory concentration (IC50) in [10] was over 20 µM; in [16], 19 µM; in [12] it was 1.4 µM; in series [13], over 20 µM; in [15], 30 µM. Also, the max activation in [3] was 92%. Moreover, in [11], the concentration giving a half-maximal response (EC50) came out at 0.0009 µM. Besides, the logD in [6] is 1.2.

Take `O=C(Cn1cnccc1=O)Nc1ccc(C[C@@H]2CC[C@H]([C@H](O)c3ccccc3)N2)cc1`: the IC50 is over 20 µM in [10]; over 30 µM in series [16]; 0.7 µM in [12]; over 20 µM in [13]; over 30 µM in [14]; over 30 µM in series [15]. Further, the max activation in series [3] is 91%. Moreover, the EC50 in [11] amounted to 0.0039 µM. Further, the AC50 in [7] is over 100 µM.

Take `O=C(Nc1ccc(C[C@@H]2CC[C@H]([C@H](O)c3cccnc3)N2)cc1)[C@@H]1CCc2scnc21`: the remaining at 24 h was determined as 1% in series [2] and 79% in series [4]. For the same compound, the max activation in series [3] is 82%. The same compound returned a logD in series [6] of 1.1. Besides, in [7], the AC50 is 79 µM.

For orientation: bioavailability means dose-corrected exposure relative to a reference, in per cent. As usually defined, the half-life is how long it takes for the measured level to halve. In the case of `C[C@@H](C(=O)Nc1ccc(C[C@@H]2CC[C@H]([C@H](O)c3cccnc3)N2)cc1)n1ncccc1=O`, in the series on Rattus norvegicus [17] (BLD = below limit of detection), the AUC/dose result is on record as “BLD”. Besides, the IC50 in series [10] is over 20 µM; in [16] it was over 30 µM; in series [12], 0.8 µM; in series [13], over 20 µM; in [14] it was over 30 µM; in series [15], over 30 µM. For the same compound, in series [3], the max activation is 87%. The compound further registered a clearance in series [18] of 12 mL/min/kg. Besides, the EC50 in series [11] is 0.0026 µM. Further, the bioavailability in series [19] was under 1%. Further, in series [7], the AC50 is over 100 µM. Besides, in [20], the half-life was 8 h.

For the compound `O=C(Cn1ccccc1=O)Nc1ccc(C[C@@H]2CC[C@H]([C@H](O)c3ccccc3)N2)cc1`, the IC50 was over 20 µM in series [10]; over 30 µM in [16]; 1.1 µM in series [12]; over 20 µM in series [13]; over 30 µM in [14]; over 30 µM in series [15]. For the same compound, the max activation in series [3] came out at 97%. For the same compound, the EC50 in series [11] came out at 0.0043 µM. Further, in series [7], the AC50 was over 100 µM.

Consider `O=C(Cn1cccnc1=O)Nc1ccc(C[C@@H]2CC[C@H]([C@H](O)c3ccccc3)N2)cc1`, for which the AUC/dose with Rattus norvegicus [17] was determined as 24 nM·h/mg/kg. The IC50 is over 20 µM in [10]; over 100 µM at Cytochrome P450 2C9; over 30 µM in series [16]; over 100 µM on Cytochrome P450 3A4; 2.5 µM in series [12]; 39 µM on Cytochrome P450 2D6. The figures for the IC50 in [13], in [14] and in series [15] were over 20 µM, over 30 µM and over 30 µM, respectively. In addition, the max activation in series [3] is 113%. The compound further gave a clearance in series [18] of 24 mL/min/kg. In addition, in [11], the EC50 is 0.0022 µM. The compound also yielded a bioavailability in [19] of 1%. Besides, the logD in [6] is 0.6. In series [7], the AC50 was over 100 µM. Further, the half-life in series [20] was 3 h.
